Measurements published in patent publication US9737525B2, “Small molecule activators of NRF2 pathway” (The General Hospital Corporation, priority 2013, dated 2017).
Where a name gives a salt, the structure may show the parent alone.

Assays:
[1] = target: human recombinant SIRT2 deacetylase (Homo sapiens (Human), UniProt Q8IXJ6); experiment: Sirtuin biochemical deacetylation assay, SIRT2
Experimental: Modulation of sirtuin activity by compounds was assessed using the Flour de Lys fluorescent biochemical assay in a 96-well format as described (Outeiro et al., 2007). The deacetylation reaction was performed at 37° C. for an hour in the presence of human recombinant enzymes: SIRT1 (BioMol-SE-239) 1 unit/per reaction, SIRT2 (BioMol-SE-251) 5 units/per reaction, or SIRT3 (BioMol-SE-270) 5 units/per reaction, compound of interest, standard buffer, 50 μM substrate, and 500 μM NAD^+ according to the manufacturer's protocol. […]

NQO1 = experiment: Quantitative NQO1 inducer bioassay in Hepa1c1c7 cells; assay type: cell-based, murine; settings: for EC (2-fold NQO1 activity): Mus musculus, Hepa-1c1c7, Table 3, Concentration which Doubles the specific activity of NQO1, read-out: NQD1 CD; for EC (2-fold NQO1 activity) / CD value (Concentration which Doubles the specific activity of NQO1): 48 hr exposure; for Effect of GSH pre-incubation on NQO1 inducer potency: 1 mM GSH at 37° C. for 30 min before cell treatment; for CD value (Concentration which Doubles the specific activity of NQO1): Hepa1c1c7 cells
Experimental: Cells grown in 96-well plates were exposed to serial dilutions of each compound for 48 hr, and the NQO1 enzyme activity was determined in cell lysates. Results are shown as average values of 8 replicate wells. The standard deviation in each case was less than 5%.
Next, using a quantitative NQO1 inducer bioassay in murine Hepa1c1c7 cells and the CD value (Concentration which Doubles the specific activity of NQO1) as a measure of potency (see Table 2), the activities of the MIND4 analogs were tested and ranked.
Inducer potency was quantified by use of the NQO1 bioassay in Hepa1c1c7 cells as described [Prochaska, 1988]. To examine the effect of GSH on inducer potency, compounds were incubated in cell culture medium containing 1 mM GSH at 37° C. for 30 min before cell treatment.

[2] = test system: NRF2-responsive proteins NQO1 and GCLM; experiment: Induction of NQO1 and GCLM proteins in differentiated ST14A cells (immunoblotting); assay type: cell-based, rat; settings: differentiated HD mutant and wild type ST14A cells, 24 hours
Experimental: (§1) To assess protein levels, cell extracts were prepared from cells washed with PBS and lysed with buffer containing 2% SDS, Complete EDTA-free Protease Inhibitor Cocktail (Roche) and 1 mM phenylmethylsulfonyl fluoride. To prepare brain extracts for analysis, frozen mouse cortical tissues were homogenized in PBS containing protease inhibitors with an Kontes Pellet Pestle (Kimble/Kontes). They were later sonicated and lysed overnight at 4° C. in 2× volume of lysis buffer containing 2% SDS and protease inhibitors. Protein concentrations in ST14A cell extracts and homogenized cortical tissues were evaluated using a BCA analysis kit and normalized. Samples were prepared in a SDS buffer containing DTT and separated on bis-acrylamide protein gels via electrophoresis and transferred onto a 0.2 μm PVDF membrane). Membranes were probed for NQO1 (Sigma N5288, 1:1,000), GCLM, (Abcam ab126704, 1:800), SIRT2 (Sigma S8447, 1:2,500), histone H3 (Cell Signaling 4499, 1:2,000), acetylated H3 (K56) (Millipore 04-1135, 1:500), TNFα (Abcam ab1793, 1:1,500), GADPH (Millipore MAB374, 1:10,000), actin (Sigma A2066, 1:1250), α-tubulin (Sigma T6074, 1:20,000), and acetylated α-tubulin (Sigma T6793, 1:2,500) overnight in 5% milk in PBST at 4° C. on a rocker. Membranes were thrice washed in PBST for 15 min on a shaker and incubated in either an anti-rabbit-HRP (Bio-Rad 170-5046, 1:10,000) or anti-mouse-HRP (Sigma A3682, 1:4,000) secondary solution as appropriate in 3% milk in PBST for 1 hr at room temperature on a rocker. After four washes of 15 min in PBST on a shaker, blots were visualized using SuperSignal West Pico Chemiluminescent Substrate (Pierce 34080) or SuperSignal West Dura Extended Duration Substrate (Thermo 34075) and exposed on Scientific Imaging Film (Kodak 864 6770).
Compound bioactivity was tested in the rat embryonic striatal cell lines ST14A, which stably express either a mutant expanded repeat (128Q) or wild type (26Q) 546 amino acid huntingtin (HTT) fragment (a generous gift of E. Cattaneo) (Ehrlich et al., 2001) ST14A cells were propagated at 33° C. in the presence of serum. To induce neuronal differentiation, cells were serum deprived and cultured at 37° C. in the presence of N2 supplement. Cells were treated with compounds concurrently with induction of neuronal differentiation for 24 hours, as described (Quinti et al., 2010).
The NRF2 activation properties of further MIND4 structural analogs with variable potencies of SIRT2 inhibition were tested as described previously (see Table 1) Changes in expression of the canonical NRF2-responsive proteins NQO1 and GCLM, the transcription of which was induced by MIND4, was selected as a readout of pathway activation. Protein levels of NQO1 and GCLM were examined by immunoblotting in compound treated mutant HD and wild-type ST14A cells. […] This hypothesis was tested using a second panel of MIND4 analogs (see Table 3).

NRF2/KEAP1 in MEFs = experiment: NQO1 and NRF2 levels in mouse embryonic fibroblasts (MEFs), western blot; assay type: cell-based; settings: wild-type MEFs, 5 hr exposure
Experimental: Mouse embryonic fibroblasts (MEFs) from wild-type (WT), NRF2-knockout (NRF2-KO) or KEAP1-knockout (KEAP1-KO) mice, were cultured in plastic dishes (Invitrogen) coated for 30 min with 0.1% (w/v) gelatin before use. The cell culture medium was Iscoves Modified Dulbecco's Medium (with L-glutamine) supplemented with human recombinant epidermal growth factor (10 ng/mL), 1× insulin/transferrin/selenium, and 10% (v/v) heat-inactivated FBS, all from Invitrogen. Cells were maintained at 5% CO2 in air at 37° C. For experiments, cells (250,000 per well) were grown for 24 hr on 6-well plates, and then treated with solvent control (0.1% DMSO, v/v) or compounds for either 5 hr or 24 hr. For western blot analysis, cells were washed twice with ice-cold phosphate buffered saline (PBS) and lysed in 150 μl of RIPA buffer (50 mM Tris-Cl pH 7.5, 150 mM NaCl, 0.5% sodium deoxycholate, 1% NP-40, 0.1% SDS and 1 mM EDTA), containing 1 protease inhibitor cocktail tablet (Roche) per 10 ml of buffer. Cell debris were removed by centrifugation at 16,300×g for […] at 4° C., and protein concentrations were determined by the BCA assay (Thermo). Proteins were resolved by SDS/PAGE, transferred to immobilon-P membranes, and probed with specific antibodies against NQO1 (1:1000) or NRF2 (1:1000). Equal loading was confirmed by probing the blots with an antibody against β-actin (mouse monoclonal, 1:10000), from Sigma, Dorset, United Kingdom.
For nuclear-cytoplasmic separation, WT MEFs (500,000 per dish) were grown for 24 hr on 6-cm plates, and then treated with solvent control (0.1% DMSO, v/v) or 0.5 μM MIND4-17. At the end of each treatment time, cells were placed on ice and washed twice with ice-cold PBS and subsequently lysed in buffer A [10 mM KCl, 5 mM MgCl2, 50 mM Tris-HCl (pH 7.5), 0.5% Nonidet P-40 (Roche), 1 mM dithioretitol (DTT) (Sigma), containing one protease inhibitor tablet and one phosphatase inhibitor tablet (both from Roche) per each 10 ml of buffer]. The lysates were subjected to centrifugation (Spectrafuge 24D, Labnet) at 1,000×g for 5 min at 4° C. The supernatant (cytoplasmic fraction) was transferred to a fresh Eppendorf tube. The pellet (nuclear fraction) was washed three times in buffer A before being dissolved in buffer B [2% SDS, 150 mM NaCl, 65 mM Tris-HCl (pH 8.0)] and sonicated for 30 sec. Finally, the lysates were subjected to western blot analysis. The blots were probed with antibodies against GAPDH (rabbit polyclonal, 1:5000) and Lamin A/C (rabbit polyclonal, 1:1000, Gene Tex, Calif., United States of America) to confirm fraction purity and equal protein loading.

[3] = test system: α-tubulin K40 and histone H3 acetylation; experiment: Acetylation of SIRT2 substrates in wild type primary cortical neurons; assay type: cell-based, mouse; design: α-Tubulin acetylation: dose or concentration left out as unconfirmed; settings: primary neurons
Experimental: as §1
Based upon the robust neuroprotection observed in HD model systems expressing both mutant HTT fragments and full-length mutant HTT, verification of the bioactivity of MIND4 as SIRT2 inhibitor in primary neurons was sought. […]

Sequence of human recombinant SIRT2 deacetylase (Q8IXJ6 whole entry): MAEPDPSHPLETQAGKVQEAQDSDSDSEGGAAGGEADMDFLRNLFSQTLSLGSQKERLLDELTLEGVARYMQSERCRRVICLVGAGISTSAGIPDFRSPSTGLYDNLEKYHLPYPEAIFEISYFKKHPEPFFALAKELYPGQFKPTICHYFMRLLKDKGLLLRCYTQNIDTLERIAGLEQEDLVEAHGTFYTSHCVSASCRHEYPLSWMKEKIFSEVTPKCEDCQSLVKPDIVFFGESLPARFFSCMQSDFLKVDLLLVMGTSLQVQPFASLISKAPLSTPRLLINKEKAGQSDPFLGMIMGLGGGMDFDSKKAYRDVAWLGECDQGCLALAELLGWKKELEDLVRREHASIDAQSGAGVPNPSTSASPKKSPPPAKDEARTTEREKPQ

SMILES | IC50 ([1]; Table 1) [µM] | IC50 ([1]; Table 3) [µM] | EC (2-fold NQO1 activity) (NQO1) [µM] | other results
Clc1ccc(-n2c(COc3cccc4ccccc34)nnc2SCc2ccccc2)cc1 [MIND4-2] | 12 |  |  | 
c1ccc(CSc2nnc(COc3cccc4ccccc34)n2-c2ccccc2)cc1 [MIND4-11] | 4.5 | 4.5 | > 10 | 
c1ccc(CSc2nnc(COc3cccc4cccnc34)n2-c2ccccc2)cc1 [MIND4-12] | 9 |  |  | 
O=[N+]([O-])c1ccc(Sc2nnc(COc3ccccc3)[nH]2)nc1 [MIND4-17-3] |  | > 50 | 7.5 | 
O=[N+]([O-])c1ccc(Sc2nnc(Cc3ccccc3)n2-c2ccccc2)nc1 [MIND4-17-15] |  | > 50 | 0.3 | 
O=[N+]([O-])c1ccc(Sc2nnc(-c3ccc(Cl)cc3)n2-c2ccccc2)nc1 [MIND4-17-33] |  | 7.5 | 0.3 | Effect of GSH pre-incubation on NQO1 inducer potency (NQO1): significantly affected by pre-incubation with GSH; CD value (Concentration which Doubles the specific activity of NQO1) (NQO1): 0.3 µM; Induction of NRF2-responsive proteins NQO1 and GCLM [2]: potent induction of NQO1 protein
O=[N+]([O-])c1cnc(Sc2nnc(-c3ccc(Cl)cc3)n2-c2ccccc2)c(Br)c1 [MIND4-17-56] |  | 0.75 | 2.5 | Effect of GSH pre-incubation on NQO1 inducer potency (NQO1): much more modest; CD value (Concentration which Doubles the specific activity of NQO1) (NQO1): 2.5 µM; Induction of NRF2-responsive proteins NQO1 and GCLM [2]: lower potency in its ability to induce NQO1
c1ccc(CSc2nnc(COc3ccccc3)n2-c2ccccc2)cc1 [MIND4-19] | 7 |  |  | 
COC(=O)/C=C/C(=O)OC [dimethyl fumarate, reference compound] |  |  |  | CD value (Concentration which Doubles the specific activity of NQO1) (NQO1): 9 µM; Induction of NRF2-responsive proteins NQO1 and GCLM [2]: dose-dependent induction of NQO1 protein
C[S+]([O-])CCCCN=C=S (stereo not drawn) [sulforaphane, reference compound] |  |  |  | CD value (Concentration which Doubles the specific activity of NQO1) (NQO1): 0.18 µM; Accumulation of total NRF2 protein (NRF2/KEAP1 in MEFs): readily detectable
O=C(CCCCCCC(=O)Nc1ccc([C@H]2O[C@@H](CSc3nc(-c4ccccc4)c(-c4ccccc4)o3)C[C@@H](c3ccc(CO)cc3)O2)cc1)NO [tubacin, reference compound] |  |  |  | α-Tubulin acetylation [3]: significantly increased α-tubulin acetylation

The next lines start with results.

IC50 ([1]; Table 1) [µM] | IC50 ([1]; Table 3) [µM] | SMILES | EC (2-fold NQO1 activity) (NQO1) [µM] | other results
5 |  | Brc1cccc(CSc2nnc(COc3ccccc3)n2-c2ccccc2)c1 [MIND4-20] |  | 
10 | 10 | O=[N+]([O-])c1ccc(CSc2nnc(COc3ccccc3)n2-c2ccccc2)cc1 [MIND4-21] |  | 
6 |  | c1ccc(CSc2nnc(COc3cccc4ccccc34)n2Cc2ccccc2)cc1 [MIND4-22] |  | 
9 |  | COc1ccc(CSc2nnc(COc3cccc4ccccc34)n2Cc2ccccc2)cc1 [MIND4-23] |  | 
 | 7.5 | O=[N+]([O-])c1ccc(Sc2nnc(-c3ccccc3)n2-c2ccccc2)c2ncccc12 [MIND4A] | 1 | SIRT2 inhibition ([1]; dose-response): lower potency of SIRT2 inhibition; Effect of GSH pre-incubation on NQO1 inducer potency (NQO1): much more modest; CD value (Concentration which Doubles the specific activity of NQO1) (NQO1): 1 µM; Induction of NRF2-responsive proteins NQO1 and GCLM [2]: higher potency induction
 | > 50 | Cn1cnnc1Sc1ccc([N+](=O)[O-])c2cccnc12 [MIND4B] | 2 | 
 | > 20 | O=[N+]([O-])c1ccc(Sc2nnc(COc3ccccc3)n2-c2ccccc2)c2cccnc12 [MIND4C] | 5 | Induction of NRF2-responsive proteins NQO1 and GCLM [2]: weaker activation; Accumulation of total NRF2 protein (NRF2/KEAP1 in MEFs): to much lesser extent
